Measured values published in patent US20120115903A1, “Substituted Heteroaromatic Carboxamide and Urea Compounds as Vanilloid Receptor Ligands” (Gruenenthal GmbH, priority 2010, published 2012).

Experiments:
Type in all cases: cell-based
[1] = target: T1, vanilloid receptor 1 (VR1/TRPV1 receptor) (Homo sapiens, UniProt Q8NER1); assay: FLIPR Ca2+ influx assay with CHO K1 cells transfected with the human VR1 gene, capsaicin stimulus; settings: Cap = capsaicin (100 nM), Ki from IC50 by Cheng-Prusoff, read-out: Ki (human being) [nM] Cap
T1 construct: expressed in transfected cells; host or cells: CHO K1 cells (ECACC), stably transfected
Procedure: Furthermore, preference may be given to compounds according to the invention of general formula (I) that cause a 50 percent displacement of capsaicin, which is present at a concentration of 100 nM, in a FLIPR assay with CHO K1 cells which were transfected with the human VR1 gene at a concentration of less than 2,000 nM, preferably less than 1,000 nM, particularly preferably less than 300 nM, most particularly preferably less than 100 nM, even more preferably less than 75 nM, additionally preferably less than 50 nM, most preferably less than 10 nM. In the process, the Ca^2+ influx is quantified in the FLIPR assay with the aid of a Ca^2+-sensitive dye (type Fluo-4, Molecular Probes Europe BV, Leiden, the Netherlands) in a fluorescent imaging plate reader (FLIPR, Molecular Devices, Sunnyvale, USA), as described hereinafter. The agonistic or antagonistic effect of the substances to be tested on the vanilloid receptor 1 (VR1) can also be determined using the following assay. In this assay, the influx of Ca^2+ through the channel is quantified with the aid of a Ca^2+-sensitive dye (type Fluo-4, Molecular Probes Europe BV, Leiden, the Netherlands) in a fluorescent imaging plate reader (FLIPR, Molecular Devices, Sunnyvale, USA). Chinese hamster ovary cells (CHO K1 cells, European Collection of Cell Cultures (ECACC) United Kingdom) are stably transfected with the VR1 gene. For functional testing, these cells are plated out on poly-D-lysine-coated black 96-well plates having a clear base (BD Biosciences, Heidelberg, Germany) at a density of 25,000 cells/well. The cells are incubated overnight at 37° C. and 5% CO2 in a culture medium (Ham's F12 nutrient mixture, 10% by volume of FCS (foetal calf serum), 18 μg/ml of L-proline). The next day the cells are incubated with Fluo-4 (Fluo-4 2 μM, 0.01% by volume of Pluronic F127, Molecular Probes in HBSS (Hank's buffered saline solution), Gibco Invitrogen GmbH, Karlsruhe, Germany) for 30 minutes at 37° C. Subsequently, the plates are washed three times with HBSS buffer and after further incubation for 15 minutes at RT used for Ca^2+ measurement in a FLIPR assay. The Ca^2+-dependent fluorescence is measured before and after the addition of the substances to be tested (λex wavelength=488 nm, λem=540 nm). Quantification is carried out by measuring the highest fluorescence intensity (FC, fluorescence counts) over time. The FLIPR protocol consists of 2 substance additions. First the compounds to be tested (10 μM) are pipetted onto the cells and the Ca^2+ influx is compared with the control (capsaicin 10 μM) (% activation based on the Ca^2+ signal after the addition of 10 μM of capsaicin). After 5 minutes' incubation, 100 nM of capsaicin are applied and the Ca^2+ influx is also determined. Desensitising agonists and antagonists led to suppression of the Ca^2+ influx. The % inhibition is calculated compared to the maximum achievable inhibition with 10 μM of capsaicin. Starting from the percentage displacement caused by different concentrations of the compounds to be tested of general formula I, IC50 inhibitory concentrations which cause a 50-percent displacement of capsaicin were calculated. K, values for the test substances were obtained by conversion by means of the Cheng-Prusoff equation (Cheng, Prusoff; Biochem. Pharmacol. 22, 3099-3108, 1973). The affinity of the compounds according to the invention for the vanilloid receptor 1 (VR1/TRPV1 receptor) was determined as described hereinbefore (pharmacological methods I and II respectively). The compounds according to the invention of the above-indicated formula (I) display outstanding affinity to the VR1/TRPV1 receptor (Table 1.).

[2] = target: T2, vanilloid receptor 1 (VR1/TRPV1 receptor) (Mus musculus, UniProt Q704Y3); assay: FLIPR Ca2+ influx assay on vanilloid receptor 1, capsaicin stimulus (mouse); settings: Cap = capsaicin, Ki from IC50 by Cheng-Prusoff
T2 construct: expressed in transfected cells; host or cells: CHO K1 cells (inferred: method II; method I is described for rat DRG neurons only)
Text: The agonistic or antagonistic effect of the substances to be tested on the vanilloid receptor 1 (VR1) can also be determined using the following assay. In this assay, the influx of Ca^2+ through the channel is quantified with the aid of a Ca^2+-sensitive dye (type Fluo-4, Molecular Probes Europe BV, Leiden, the Netherlands) in a fluorescent imaging plate reader (FLIPR, Molecular Devices, Sunnyvale, USA).
Chinese hamster ovary cells (CHO K1 cells, European Collection of Cell Cultures (ECACC) United Kingdom) are stably transfected with the VR1 gene. […] The Ca^2+-dependent fluorescence is measured before and after the addition of the substances to be tested (λex wavelength=488 nm, λem=540 nm). Quantification is carried out by measuring the highest fluorescence intensity (FC, fluorescence counts) over time.
The FLIPR protocol consists of 2 substance additions. […] After 5 minutes' incubation, 100 nM of capsaicin are applied and the Ca^2+ influx is also determined. […]
Starting from the percentage displacement caused by different concentrations of the compounds to be tested of general formula I, IC50 inhibitory concentrations which cause a 50-percent displacement of capsaicin were calculated. […]
The affinity of the compounds according to the invention for the vanilloid receptor 1 (VR1/TRPV1 receptor) was determined as described hereinbefore (pharmacological methods I and II respectively). […]

[3] = target: T1, vanilloid receptor 1 (VR1/TRPV1 receptor); assay: Functional test on vanilloid receptor 1, 45° C. stimulus (human); settings: for IC50: read-out: IC50 (human being) [nM], 45° C.
[4] = target: T1, vanilloid receptor 1 (VR1/TRPV1 receptor); assay: FLIPR Ca2+ influx assay with CHO K1 cells transfected with the human VR1 gene, capsaicin stimulus; settings: read-out: inhibition (as a percentage), human being, Cap; for inhibition at 5 µM: @ 5 μM compound

T1 sequence (Q8NER1 whole entry): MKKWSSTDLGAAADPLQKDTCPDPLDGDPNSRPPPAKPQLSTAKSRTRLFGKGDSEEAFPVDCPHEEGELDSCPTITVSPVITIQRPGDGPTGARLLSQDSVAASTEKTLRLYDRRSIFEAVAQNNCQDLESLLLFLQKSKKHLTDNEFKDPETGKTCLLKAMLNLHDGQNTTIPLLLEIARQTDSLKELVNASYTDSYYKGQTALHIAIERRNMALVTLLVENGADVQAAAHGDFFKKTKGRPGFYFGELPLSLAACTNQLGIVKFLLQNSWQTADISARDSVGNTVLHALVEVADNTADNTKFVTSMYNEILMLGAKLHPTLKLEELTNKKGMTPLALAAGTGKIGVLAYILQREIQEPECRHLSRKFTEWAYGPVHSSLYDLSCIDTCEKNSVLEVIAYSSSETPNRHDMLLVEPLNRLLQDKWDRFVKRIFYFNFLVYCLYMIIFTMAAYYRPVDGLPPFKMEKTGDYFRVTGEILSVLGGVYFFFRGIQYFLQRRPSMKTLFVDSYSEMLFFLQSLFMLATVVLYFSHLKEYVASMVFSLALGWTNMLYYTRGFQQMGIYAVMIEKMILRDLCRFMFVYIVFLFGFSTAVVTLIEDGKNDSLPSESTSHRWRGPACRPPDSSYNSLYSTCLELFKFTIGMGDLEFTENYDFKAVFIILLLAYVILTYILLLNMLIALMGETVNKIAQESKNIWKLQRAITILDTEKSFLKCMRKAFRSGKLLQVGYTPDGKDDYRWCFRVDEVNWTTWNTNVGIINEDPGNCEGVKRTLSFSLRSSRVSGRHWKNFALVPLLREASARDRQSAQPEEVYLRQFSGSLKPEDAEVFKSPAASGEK
T2 sequence (Q704Y3 whole entry): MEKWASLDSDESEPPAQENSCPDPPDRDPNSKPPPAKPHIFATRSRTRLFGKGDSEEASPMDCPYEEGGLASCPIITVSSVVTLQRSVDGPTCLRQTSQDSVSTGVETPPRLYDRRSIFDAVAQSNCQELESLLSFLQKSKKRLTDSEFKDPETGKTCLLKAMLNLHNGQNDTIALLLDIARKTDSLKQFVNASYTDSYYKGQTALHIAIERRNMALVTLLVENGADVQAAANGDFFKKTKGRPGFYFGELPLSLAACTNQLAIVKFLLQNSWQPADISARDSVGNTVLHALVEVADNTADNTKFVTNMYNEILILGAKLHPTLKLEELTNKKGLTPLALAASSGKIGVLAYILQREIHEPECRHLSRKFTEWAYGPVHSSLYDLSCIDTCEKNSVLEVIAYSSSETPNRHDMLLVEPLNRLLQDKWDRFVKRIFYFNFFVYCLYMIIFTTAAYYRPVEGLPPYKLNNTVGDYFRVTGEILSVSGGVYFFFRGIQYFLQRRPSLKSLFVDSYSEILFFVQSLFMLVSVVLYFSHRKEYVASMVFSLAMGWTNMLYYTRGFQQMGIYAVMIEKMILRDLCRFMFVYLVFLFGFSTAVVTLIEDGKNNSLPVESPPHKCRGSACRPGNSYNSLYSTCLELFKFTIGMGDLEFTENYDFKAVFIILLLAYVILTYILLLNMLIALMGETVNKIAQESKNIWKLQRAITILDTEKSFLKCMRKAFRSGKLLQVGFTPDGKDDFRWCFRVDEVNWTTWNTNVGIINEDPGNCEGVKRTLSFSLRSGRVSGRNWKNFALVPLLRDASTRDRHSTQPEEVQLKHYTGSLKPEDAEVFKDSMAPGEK

| Molecule | Ki [1] | further results |
| --- | --- | --- |
| CC(C(=O)NCc1cc(C(F)(F)F)nn1-c1ccccc1)c1cn(C)c2ccccc12 (stereo not shown) [Example 1, 2-(1-methyl-1H-indol-3-yl)-N-((1-phenyl-3-(trifluoromethyl)-1H-pyrazol-5-yl)methyl)propanamide] | 42.1 nM |  |
| CC(C(=O)NCc1cc(C(C)(C)C)nn1-c1cccc(Cl)c1)c1cn(C)c2ccccc12 (stereo not shown) [Example 2, N-((3-tert-butyl-1-(3-chlorophenyl)-1H-pyrazol-5-yl)methyl)-2-(1-methyl-1H-indol-3-yl)propanamide] | 33.6 nM |  |
| COc1cccc(-n2nc(C(F)(F)F)cc2CNC(=O)C(C)c2cn(C)c3ccccc23)c1 (stereo not shown) [Example 3, N-((1-(3-methoxyphenyl)-3-(trifluoromethyl)-1H-pyrazol-5-yl)methyl)-2-(1-methyl-1H-indol-3-yl)propanamide] | 49.8 nM |  |
| Cc1cccc(-n2nc(C(F)(F)F)cc2CNC(=O)C(C)c2cn(C)c3ccc(O)cc23)c1 (stereo not shown) [Example 5, 2-(5-hydroxy-1-methyl-1H-indol-3-yl)-N-((1-m-tolyl-3-(trifluoromethyl)-1H-pyrazol-5-yl)methyl)propanamide] | 0.6 nM | Ki [2]: 38.5 nM |
| CC(C(=O)NCc1cc(C(C)(C)C)nn1-c1ccccn1)c1cn(C)c2ccc(O)cc12 (stereo not shown) [Example 6, N-((3-tert-butyl-1-(pyridin-2-yl)-1H-pyrazol-5-yl)methyl)-2-(5-hydroxy-1-methyl-1H-indol-3-yl)propanamide] | 56.8 nM |  |
| Cc1c(C(F)(F)F)nn(-c2cccc(Cl)c2)c1CNC(=O)C(C)c1cn(C)c2ccc(O)cc12 (stereo not shown) [Example 7, N-((1-(3-chlorophenyl)-4-methyl-3-(trifluoromethyl)-1H-pyrazol-5-yl)methyl)-2-(5-hydroxy-1-methyl-1H-indol-3-yl)propanamide] | 0.4 nM | inhibition at 2.5 µM ([3]; @ 2.5 μM compound, read-out: inhibition (as a percentage), human being, 45° C.): 36% |
| CC(C(=O)NCc1cc(C(F)(F)F)nn1-c1cccc(Cl)c1)c1cn(C)c2ccccc12 (stereo not shown) [Example 8, N-((1-(3-chlorophenyl)-3-(trifluoromethyl)-1H-pyrazol-5-yl)methyl)-2-(1-methyl-1H-indol-3-yl)propanamide] | 6.4 nM | IC50 [3]: 924 nM |
| Cn1cc(CC(=O)NCc2cc(C(F)(F)F)nn2-c2cccc(Cl)c2)c2cc(O)ccc21 [Example 9, N-((1-(3-chlorophenyl)-3-(trifluoromethyl)-1H-pyrazol-5-yl)methyl)-2-(5-hydroxy-1-methyl-1H-indol-3-yl)acetamide] | 0.25 nM | IC50 [3]: 1730 nM |
| CC(C(=O)NCc1cc(C(C)(C)C)nn1-c1ccc(F)c(Cl)c1)c1cn(C)c2ccc(O)cc12 (stereo not shown) [Example 11, N-((3-tert-butyl-1-(3-chloro-4-fluorophenyl)-1H-pyrazol-5-yl)methyl)-2-(5-hydroxy-1-methyl-1H-indol-3-yl)propanamide] | 0.7 nM | IC50 [3]: 39 nM |
| CC(C(=O)NCc1cc(C2CC2)nn1-c1cccc(Cl)c1)c1cn(C)c2ccc(O)cc12 (stereo not shown) [Example 12, N-((1-(3-chlorophenyl)-3-cyclopropyl-1H-pyrazol-5-yl)methyl)-2-(5-hydroxy-1-methyl-1H-indol-3-yl)propanamide] | 1.1 nM | IC50 [3]: 95.8 nM |
| COc1ccc2c(c1)c(CC(=O)NCc1cc(C(C)(C)C)nn1-c1cccc(Cl)c1)cn2C [Example 13, N-((3-tert-butyl-1-(3-chlorophenyl)-1H-pyrazol-5-yl)methyl)-2-(5-methoxy-1-methyl-1H-indol-3-yl)acetamide] | 33.3 nM |  |
| COc1ccc2c(c1)c(C(C)C(=O)NCc1cc(C(C)(C)C)nn1-c1cccc(Cl)c1)cn2C (stereo not shown) [Example 14, N-((3-tert-butyl-1-(3-chlorophenyl)-1H-pyrazol-5-yl)methyl)-2-(5-methoxy-1-methyl-1H-indol-3-yl)propanamide] | 48.1 nM |  |
| CC(C(=O)NCc1cc(C(F)(F)F)nn1CC1CC1)c1cn(C)c2ccccc12 (stereo not shown) [Example 15, N-((1-(cyclopropylmethyl)-3-(trifluoromethyl)-1H-pyrazol-5-yl)methyl)-2-(1-methyl-1H-indol-3-yl)propanamide] |  | inhibition at 5 µM [4]: 14% |
| O=C(NCc1cc(C(F)(F)F)nn1-c1cccc(Cl)c1)Nc1n[nH]c2ccccc12 [Example 16, 1-((1-(3-chlorophenyl)-3-(trifluoromethyl)-1H-pyrazol-5-yl)methyl)-3-(1H-indazol-3-yl)urea] |  | inhibition at 5 µM [4]: 24% |
| Cn1nc(NC(=O)NCc2cc(C(F)(F)F)nn2-c2cccc(Cl)c2)c2cccnc21 [Example 17, 1-((1-(3-chlorophenyl)-3-(trifluoromethyl)-1H-pyrazol-5-yl)methyl)-3-(1-methyl-1H-pyrazolo[3,4-b]pyridin-3-yl)urea] |  | inhibition at 1 µM ([4]; @ 1 μM compound): 4%; inhibition at 5 µM [4]: 30% |
| Cn1cc(CC(=O)NCc2nc(C(C)(C)C)nn2-c2cccc(Cl)c2)c2cc(O)ccc21 [Example 18, N-((3-tert-butyl-1-(3-chlorophenyl)-1H-1,2,4-triazol-5-yl)methyl)-2-(5-hydroxy-1-methyl-1H-indol-3-yl)acetamide] | 70.9 nM |  |
| N-((1-cyclopentyl-3-(trifluoromethyl)-1H-pyrazol-5-yl)methyl)-2-(5-hydroxy-1-methyl-1H-indol-3-yl)propanamide [Example 4] | 4.8 nM | IC50 [3]: 92 nM |
